# Assay results published in patent US5212188A, “Method for treatment of neurodegenerative diseases” (R. J. Reynolds Tabacco Company, priority 1992, dated 1993).
# Legend:
# [1] = test system: synaptosomes from the striatal area of rat brain; assay: [3H]-dopamine release from striatal synaptosomes, continuous perfusion; format: cell-based, Sprague-Dawley rats; conditions: 0.2 ml of a 20 μM solution of ligand, relative to equal concentration of S(-) nicotine, read-out: Dopamine Release (percent release relative to S(-) nicotine)
# Protocol: Dopamine release was measured by preparing synaptosomes from the striatal area of rat brain obtained from Sprague-Dawley rats generally according to the procedures set forth by Nagy, et al., J. Neurochem., Vol. 43, pp. 1114-1123 (1984). Striata from 4 rats were homogenized in 2 ml of 0.32M sucrose buffered with 5 mM HEPES (pH 7.5), using a glass-teflon tissue grinder. The homogenate was diluted to 5 ml with additional homogenization solution and centrifuged at 1000×g for 10 min. This procedure was repeated on the new pellet and the resulting supernatant was centrifuged at 12,000×g for 20 min. […] Using this method, 30 to 90 percent of the dopamine was taken up into the synaptosomes, as determined by scintillation counting following filtration through glass fiber filters soaked with 0.5 percent polyethyleneimine. […] After the addition of a 0.2 ml of a 20 μM solution of ligand, the perfusate was collected into scintillation vials at 1 min. intervals and the dopamine released was quantified by scintillation counting. Peaks of radioactivity released above background were summed and the average basal release during that time was subtracted from the total. Release was expressed as a percentage of release obtained with an equal concentration of S(-) nicotine.
# [2] = target: high affinity nicotinic receptors; assay: Inhibition of L-[3H]nicotine binding to mouse brain membrane preparations; parameters: species or system Mice (DBA strain); conditions: 10 nM L-[3H]nicotine, 2 hr at 4° C., mouse brain membranes, Ki calculated from IC50 by Cheng method
# Protocol: Mice (DBA strain) were maintained on a 12 hour light/dark cycle and were allowed free access to water and food supplied by Wayne Lab Blox, Madison, WI. Animals used in the present studies were 60 to 90 days of age and weighed 20 to 25 g. Brain membrane preparations were obtained from pooled brain tissue of both males and females.
# Mice were killed by cervical dislocation. Brains were removed and placed on an ice-cold platform. The cerebellum was removed and the remaining tissue was placed in 10 volumes (weight:volume) of ice-cold buffer (Krebs-RingersHEPES:NaCl, 118 mM; KCl, 4.8 mM; CaCl2, 2.5 mM; MgSO4, 1.2 mM; HEPES, 20 mM; pH to 7.5 with NaOH) and homogenized with a glass-Teflon tissue grinder. The resulting homogenate was centrifuged at 18000×g for 20 min. and the resulting pellet was resuspended in 20 volumes of water. […] Protein was determined by the method of Lowry, et al., J. Biol. Chem., Vol. 193, pp. 265-275 (1951), using bovine serum albumin as the standard.
# The binding of L-[^3 H]nicotine was measured using a modification of the method of Romano, et al., Science, Vol. 210, pp. 647-650 (1980) as described previously by Marks, et al., Mol. Pharmacol., Vol. 30, pp. 427-436 (1986). The binding of L-[^3 H]nicotine was measured using a 2 hr. incubation at 4° C. […] Nonspecific binding was determined by inclusion of 10 μM nonradioactive nicotine in the incubations. […]
structure (smiles),measurement,setting,value
CNCC/C=C/c1cccnc1 [trans-meta-nicotine],Emax,[1],70%
same,Ki,[2],0.021 ± 0.005 µM
